Test results reported in ChEMBL document CHEMBL3792309, “Seeking potent anti-tubercular agents: Design, synthesis, anti-tubercular activity and docking study of various ((triazoles/indole)-piperazin-1-yl/1,4-diazepan-1-yl)benzo[d]isoxazole derivatives” (Bioorg Med Chem Lett, 2016).
In brackets after ≈: the same amount, converted by molar mass.

Legend:
[1] = test system: Mycobacterium tuberculosis; experiment: Antimicrobial activity against Mycobacterium tuberculosis H37Rv by classical test tube method; assay type: functional
[2] = test system: Mycobacterium tuberculosis; experiment: Antimicrobial activity against p-aminosalicylic acid/isonicotinic acid hydrazide/etambutol/rifampicin sensitive Mycobacterium tuberculosis Spec. 192 by classical test tube method; assay type: functional
RAW264.7 = experiment: Cytotoxicity against mouse RAW264.7 cells assessed as inhibition of cell viability after 72 hrs by CellTiter 96 non radioactive cell proliferation assay; assay type: cell-based; conditions: RAW264.7, 72 h
[3] = Selectivity index, ratio of IC50 for mouse RAW264.7 cells to MIC for Mycobacterium tuberculosis H37Rv; assay type: toxicity; conditions: read-out: Selectivity Index
[4] = Cytotoxicity against mouse RAW264.7 cells assessed as inhibition of cell viability at 98.8 uM after 72 hrs by CellTiter 96 non radioactive cell proliferation assay; assay type: cell-based
[5] = Cytotoxicity against mouse RAW264.7 cells assessed as inhibition of cell viability at 96.13 uM after 72 hrs by CellTiter 96 non radioactive cell proliferation assay; assay type: cell-based
[6] = Cytotoxicity against mouse RAW264.7 cells assessed as inhibition of cell viability at 116.78 uM after 72 hrs by CellTiter 96 non radioactive cell proliferation assay; assay type: cell-based
[7] = test system: Mycobacterium tuberculosis; experiment: Antimicrobial activity against Mycobacterium tuberculosis H37Rv assessed as growth inhibition at 257.59 uM by classical test tube method; assay type: functional; conditions: read-out: GI
[8] = Cytotoxicity against mouse RAW264.7 cells assessed as inhibition of cell viability at 113.07 uM after 72 hrs by CellTiter 96 non radioactive cell proliferation assay; assay type: cell-based

| Structure (SMILES) | MIC [1] [µM] | MIC [2] [µM] | further results |
| --- | --- | --- | --- |
| O=C(Cc1c[nH]c2ccccc12)N1CCN(c2noc3ccccc23)CC1 | > 200 | > 200 | – |
| O=[N+]([O-])c1ccc(-n2cc(CN3CCN(c4noc5ccccc45)CC3)nn2)cc1 | > 200 | > 200 | – |
| Clc1ccc2c(N3CCN(Cc4cn(-c5ccc(Br)cc5)nn4)CC3)noc2c1 | > 200 | > 200 | – |
| Clc1cccc(-n2cc(CN3CCN(c4noc5ccccc45)CC3)nn2)c1 | 63.4 (≈ 25 µg/mL) | 63.4 (≈ 25 µg/mL) | – |
| O=C(CCCc1c[nH]c2ccccc12)N1CCN(c2noc3ccccc23)CC1 | > 200 | > 200 | – |
| FC(F)(F)c1cc(-n2cc(CN3CCN(c4noc5ccccc45)CC3)nn2)ccc1Br | 6.16 (≈ 3.13 µg/mL) | 6.16 (≈ 3.13 µg/mL) | IC50 (RAW264.7): 223 µM; selectivity ratio [3]: 36.1; inhibition at 72 h, 98.8 µM [4]: 22.2% |
| COc1ccc(-n2cc(CN3CCN(c4noc5ccccc45)CC3)nn2)cc1 | > 200 | > 200 | – |
| COc1cccc(-n2cc(CN3CCCN(c4noc5ccccc45)CC3)nn2)c1 | > 200 | > 200 | – |
| Clc1cccc(-n2cc(CN3CCCN(c4noc5ccccc45)CC3)nn2)c1 | 122 (≈ 50.1 µg/mL) | 122 (≈ 50.1 µg/mL) | – |
| O=C(CCCc1c[nH]c2ccccc12)N1CCCN(c2noc3ccccc23)CC1 | > 200 | > 200 | – |
| O=C(CCc1c[nH]c2ccccc12)N1CCCN(c2noc3ccccc23)CC1 | > 200 | > 200 | – |
| Clc1ccc(-n2cc(CN3CCCN(c4noc5ccccc45)CC3)nn2)cc1 | > 200 | > 200 | – |
| FC(F)(F)c1cc(-n2cc(CN3CCCN(c4noc5ccccc45)CC3)nn2)ccc1Br | 24 (≈ 12.5 µg/mL) | 24 (≈ 12.5 µg/mL) | IC50 (RAW264.7): 181 µM; selectivity ratio [3]: 7.54; inhibition at 72 h, 96.13 µM [5]: 26.5% |
| FC(F)(F)c1cccc(-n2cc(CN3CCN(c4noc5ccccc45)CC3)nn2)c1 | 29.2 (≈ 12.5 µg/mL) | 29.2 (≈ 12.5 µg/mL) | inhibition at 72 h, 116.78 µM [6]: 19.2%; IC50 (RAW264.7): 305 µM; selectivity ratio [3]: 10.4 |
| C#CCN1CCCN(c2noc3ccccc23)CC1 | 196 (≈ 50 µg/mL) | 196 (≈ 50 µg/mL) | – |
| COc1ccc(-n2cc(CN3CCN(c4noc5cc(Cl)ccc45)CC3)nn2)cc1 | 118 (≈ 50.1 µg/mL) | 118 (≈ 50.1 µg/mL) | – |
| Fc1ccc(-n2cc(CN3CCCN(c4noc5ccccc45)CC3)nn2)cc1 | 127 (≈ 50 µg/mL) | 127 (≈ 50 µg/mL) | – |
| O=C(CCc1c[nH]c2ccccc12)N1CCN(c2noc3ccccc23)CC1 | > 200 | > 200 | – |
| COc1ccc(-n2cc(CN3CCCN(c4noc5ccccc45)CC3)nn2)cc1 | > 200 | > 200 | – |
| COc1cccc(-n2cc(CN3CCN(c4noc5ccccc45)CC3)nn2)c1 | 128 (≈ 50 µg/mL) | 128 (≈ 50 µg/mL) | – |

| Structure (SMILES) | MIC [1] [µM] | MIC [2] [µM] | further results |
| --- | --- | --- | --- |
| CCc1ccc(-n2cc(CN3CCN(c4noc5ccccc45)CC3)nn2)cc1 | > 200 | > 200 | inhibition of growth at 257.59 µM [7]: 99% |
| O=C(Cc1c[nH]c2ccccc12)N1CCN(c2noc3cc(Cl)ccc23)CC1 | 127 (≈ 50.1 µg/mL) | 127 (≈ 50.1 µg/mL) | – |
| Clc1ccc(-n2cc(CN3CCN(c4noc5ccccc45)CC3)nn2)cc1 | > 200 | > 200 | – |
| Fc1ccc(-n2cc(CN3CCN(c4noc5cc(Cl)ccc45)CC3)nn2)cc1 | 121 (≈ 50.1 µg/mL) | 121 (≈ 50.1 µg/mL) | – |
| C#CCN1CCN(c2noc3ccccc23)CC1 | > 200 | > 200 | – |
| CCc1ccc(-n2cc(CN3CCCN(c4noc5ccccc45)CC3)nn2)cc1 | > 200 | > 200 | – |
| O=[N+]([O-])c1ccc(-n2cc(CN3CCCN(c4noc5ccccc45)CC3)nn2)cc1 | > 200 | > 200 | – |
| O=C(CCc1c[nH]c2ccccc12)N1CCN(c2noc3cc(Cl)ccc23)CC1 | > 200 | > 200 | – |
| NNC(=O)c1ccncc1 [ISONIAZID] | 91.1 (≈ 12.5 µg/mL) | 91.1 (≈ 12.5 µg/mL) | – |
| CCc1ccc(-n2cc(CN3CCN(c4noc5cc(Cl)ccc45)CC3)nn2)cc1 | > 200 | > 200 | – |
| Clc1ccc(-n2cc(CN3CCN(c4noc5cc(Cl)ccc45)CC3)nn2)cc1 | > 200 | > 200 | – |
| O=C(Cc1c[nH]c2ccccc12)N1CCCN(c2noc3ccccc23)CC1 | 134 (≈ 50 µg/mL) | 134 (≈ 50 µg/mL) | – |
| FC(F)(F)c1cccc(-n2cc(CN3CCCN(c4noc5ccccc45)CC3)nn2)c1 | 28.3 (≈ 12.5 µg/mL) | 28.3 (≈ 12.5 µg/mL) | IC50 (RAW264.7): 178 µM; selectivity ratio [3]: 6.29; inhibition at 72 h, 113.07 µM [8]: 31.8% |
| Fc1ccc(-n2cc(CN3CCN(c4noc5ccccc45)CC3)nn2)cc1 | 132 (≈ 50 µg/mL) | 132 (≈ 50 µg/mL) | – |
| O=[N+]([O-])c1ccc(-n2cc(CN3CCN(c4noc5cc(Cl)ccc45)CC3)nn2)cc1 | > 200 | > 200 | – |
| O=C(CCCc1c[nH]c2ccccc12)N1CCN(c2noc3cc(Cl)ccc23)CC1 | > 200 | > 200 | – |
| Brc1ccc(-n2cc(CN3CCCN(c4noc5ccccc45)CC3)nn2)cc1 | > 200 | > 200 | – |
| Brc1ccc(-n2cc(CN3CCN(c4noc5ccccc45)CC3)nn2)cc1 | > 200 | > 200 | – |
| C#CCN1CCN(c2noc3cc(Cl)ccc23)CC1 | 182 (≈ 50.1 µg/mL) | 182 (≈ 50.1 µg/mL) | – |
